Test results as given in patent US20240400542A1 (University of Virginia Patent Foundation, priority 2021, published 2024).

Columns and labels:
[1] = target: T1, Phosphotyrosine protein phosphatase (Homo sapiens, UniProt P24666); test: SILAC competitive chemical proteomic assay (TH211 probe, LC-MS/MS); type: cell-based; details: TH207 inhibitor; HEK293T soluble fraction; P24666.3 tyrosine 132
T1 construct: endogenous in cells; host or cells: HEK293T
T1 sequence (P24666 1-158): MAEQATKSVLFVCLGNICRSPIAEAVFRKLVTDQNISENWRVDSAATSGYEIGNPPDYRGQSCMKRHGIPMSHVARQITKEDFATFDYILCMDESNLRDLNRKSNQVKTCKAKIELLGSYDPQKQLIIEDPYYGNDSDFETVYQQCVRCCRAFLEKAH
Method: (§1) The light and heavy proteomes (2.3 mg/mL, 432 μL) prepared from HEK293T cells that were pretreated in situ with vehicle (DMSO) or the inhibitor (2 μM), respectively, at 37° C. for 1 hr followed by probe TH211 treatment (50 μM) for 2 h, were directly were subjected to click reaction with the desthiobiotin-PEG3-azide (10 mM in DMSO, 10 μL, final concentration 200 μM) in the presence of TCEP (50 mM, 10 μL), TBTA (1.7 mM, 33 μL) and CuSO4 (50 mM, 10 μL) at room temperature for 1 hr. The light and the heavy samples were mixed in the chloroform-methanol extraction step. The subsequent steps including reduction with dithiothreitol, alkylation with iodoacetamide, digestion with Trypsin/Lys-C, enrichment with avidin beads were conducted as previously described^26.

[2] = target: T2, dCTP pyrophosphatase 1 (Homo sapiens, UniProt Q9H773); test: as above; type: cell-based; details: TH207 inhibitor; HEK293T soluble fraction; Q9H773.1 tyrosine 129
T2 construct: endogenous in cells; host or cells: HEK293T
T2 sequence (Q9H773 1-170): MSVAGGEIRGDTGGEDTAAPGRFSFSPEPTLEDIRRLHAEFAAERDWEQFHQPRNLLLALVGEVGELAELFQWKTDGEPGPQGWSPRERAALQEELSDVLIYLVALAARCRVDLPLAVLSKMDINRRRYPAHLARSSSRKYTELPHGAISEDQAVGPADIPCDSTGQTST
Method: as §1

Question: For Cc1ccc(S(=O)(=O)n2cc(CCN3CCC(=C(c4ccc(F)cc4)c4ccc(F)cc4)CC3)nn2)cc1 [TH207, 4-(Bis(4-fluorophenyl)methylene)-1-(2-(1-tosyl-1H-1,2,3-triazol-4-yl)ethyl)piperidine], which “Normalized SILAC ratio (SR), Phosphotyrosine protein phosphatase Y132” value [1] is on record?
Answer: 1.9

Question: What about the “Normalized SILAC ratio (SR), dCTP pyrophosphatase 1 Y129” value [2] of the same compound?
Answer: 3
